Assay results from article PMC7480010 (Journal of biomolecular screening, 2015).

System: MDA-MB-231
Format: cell-based, human
Details: anisomycin stimulation

In the case of `Cc1ccc(-n2nc(C(C)(C)C)cc2NC(=O)Nc2ccc(OCCN3CCOCC3)c3ccccc23)cc1` [BIRB-796], the “level of phosphorylated/activated p38” value is reported as “reduces in the overall level of phosphorylated p38” and the “phosphorylation status of SAPK/JNK” value is reported as “reduces the phosphorylation of JNK”.
